# Data from PubChem BioAssay AID1996.
# Conditions: buffer; pH 7.4; 200.0 µM
row,SMILES,solubility kinetic
1,O=C(CSc1ccccn1)NC1CCCC1,> 35.4 µg/mL
2,O=C(c1cc(Cl)nc2ccccc12)N1CCc2ccccc2C1,34.5 µg/mL
3,COCCc1nnc(NC(=O)C(C)C)s1,> 34.4 µg/mL
4,O=C(Nc1ccccc1C(=O)Nc1ccncc1)c1ccccc1,6 µg/mL
5,CC(C)OC(=O)/C(C#N)=C\c1cccnc1,28.2 µg/mL
6,CCCCCCCOc1ccc(C2(C)NC(=O)NC2=O)cc1 (stereo not given),9.3 µg/mL
7,COc1ccc(C)cc1S(=O)(=O)NC1CCCCCC1,4.8 µg/mL
8,CC1CCCN(C(=O)c2ccc3c(c2)OCCO3)C1 (stereo not given),> 39.2 µg/mL
9,CCOP(=O)(c1ccc(N(C)C)cc1)C(O)c1ccc(OC)cc1 (stereo not given),48.8 µg/mL
10,CCOC(=O)c1cccc(NC(=O)c2cc3ccccc3o2)c1,0.7 µg/mL
11,O=C(c1cc(Br)c[nH]1)N1CCSCC1,29.6 µg/mL
12,Cc1ccn2cc(-c3cccc(NC(=O)CCC(=O)O)c3)nc2c1,> 48.5 µg/mL
13,COc1ccc(OC)c2c1sc(=NC(=O)C1CCCCC1)n2C,< 0.4 µg/mL
14,O=C(OCc1c(F)cccc1Cl)c1cnc2ccccc2n1,1.8 µg/mL
15,Cc1ccc(Cn2cc(CCC(=O)O)c3ccccc32)cc1,> 44 µg/mL
16,C=CCN1C(=O)/C(=C2/Sc3ccccc3N2CC)SC1=S,< 0.4 µg/mL
17,CC1(c2ccccc2Cl)NC(=O)N(CC(=O)Nc2ccc(N3CCOCC3)cc2)C1=O (stereo not given),> 66.4 µg/mL
18,S=C(NCc1ccc(Cl)c(Cl)c1)NCc1ccco1,23.1 µg/mL
19,COC(=O)c1ccc2[nH]c3c(c2c1)CC(C)CC3 (stereo not given),0.9 µg/mL
20,COc1ccc2c(c1)C1OCCC1C(c1ccco1)N2 (stereo not given),> 40.7 µg/mL
21,O=C(OCc1nc2ccsc2c(=O)[nH]1)c1ccco1,> 41.4 µg/mL
22,Cc1cccc(CCNCc2cc3cccc(C)c3[nH]c2=O)c1,45.9 µg/mL
23,COCCNC(=S)N1CCN(S(=O)(=O)c2ccc(Cl)s2)CC1,11.4 µg/mL
24,Cn1nc(C(=O)OCC(=O)NCCc2ccccc2)c2ccccc2c1=O,> 54.8 µg/mL

row,SMILES,solubility kinetic
1,CC(NC(=O)C1c2ccccc2Oc2ccccc21)C1CCCO1 (stereo not given),37.8 µg/mL
2,COc1ccc(Cl)cc1NC(=O)CN(C)CC(=O)NCc1ccc(F)cc1,> 59.1 µg/mL
3,COC(=O)C1=C(C)NC(=O)NC1c1ccco1 (stereo not given),27.8 µg/mL
4,COc1ccccc1CCNC(=O)C1(C)CC1(Cl)Cl (stereo not given),> 45.3 µg/mL
5,O=C(c1ccc2ccccc2n1)N1CCN(S(=O)(=O)c2ccccc2)CC1,> 57.2 µg/mL
6,O=C(Oc1c(-c2ccccc2)c(=O)n2c3c(cccc13)CC2)c1cccc([N+](=O)[O-])c1,5.2 µg/mL
7,Cc1ccccc1N1CCN(CCC(=O)Nc2ccc(F)cc2)CC1,39.9 µg/mL
8,COc1ccc(N2CCN(C(=O)/C=C/c3ccco3)CC2)cc1,10.5 µg/mL
9,O=C(Nc1ccc([N+](=O)[O-])cc1)c1cc(Cl)sc1Cl,< 0.3 µg/mL
10,COc1ccccc1NC(=O)c1ccccc1C(=O)N(C)Cc1ccccc1,1.3 µg/mL
11,O=C(c1ccccc1)N1CCN(S(=O)(=O)N2CCCCCC2)CC1,> 52.7 µg/mL
12,CCOC(=O)CNC(=S)N(Cc1ccccc1)Cc1ccccc1F,11.7 µg/mL
13,CN(CC(=O)Nc1ccc(F)cc1[N+](=O)[O-])Cc1ccccc1,1 µg/mL
14,Cc1ccc(O)c(-c2cc(-c3ccc(F)cc3)no2)c1,< 0.6 µg/mL
15,Cl.c1ccc(OCC2CCNCC2)nc1,33.7 µg/mL
16,COc1ccc(S(=O)(=O)N2CCC(C(=O)Oc3cccc(C)c3)CC2)cc1OC,< 0.9 µg/mL
17,CN1CCN(c2ccc(CNS(=O)(=O)c3ccsc3)cc2)CC1,22.7 µg/mL
18,NC(=S)c1ncc(C(F)(F)F)cc1Cl,30.4 µg/mL
19,Cc1ccc(OCCCCN2CCCCC2)c(C)c1,19.6 µg/mL
20,C/C(=N/NC(=O)CN1CCN(Cc2ccccc2Cl)CC1)c1cccnc1,> 57.9 µg/mL
21,Cc1ccc(C)c(S(=O)(=O)N2CCN(C(=O)c3cccnc3)CC2)c1,50.8 µg/mL
22,O=C(CSC(=S)N1CCCC1)Nc1cc2c(cc1Br)OCCO2,< 0.4 µg/mL
23,COc1ccc(OC2CCN(C(=O)Nc3ccc(C)cc3)CC2)cc1,0.4 µg/mL
24,COc1ccc(C(=O)O/N=C(\N)c2ccccc2)cc1,27.1 µg/mL

row,SMILES,solubility kinetic
1,O=C(CNC(=O)C1CCCCC1)OCC(=O)c1cccc(Cl)c1,46.8 µg/mL
2,Cc1ccccc1CNC(=O)C(=O)Nc1nccs1,1.2 µg/mL
3,CCOC(=O)C1=C(O)C(=O)N(Cc2ccccc2)C1,> 39.2 µg/mL
4,O=C(CSc1nnc2ccccn12)Nc1ccc(N2CCOCC2)cc1,> 55.4 µg/mL
5,CC(=O)NC(CC(=O)N(C)Cc1cccc(Cl)c1Cl)c1ccccc1 (stereo not given),> 56.9 µg/mL
6,O=C(Nc1ccc(OC(F)(F)F)cc1)Oc1ccccc1N1CCCCC1,9.7 µg/mL
7,Cc1cccc(CN2C3=NCCCN3c3ccccc32)c1.Cl,> 47.1 µg/mL
8,COc1cc(C(=O)NCCNC(=O)c2ccc(C)nc2)cc(OC)c1OC,52.6 µg/mL
9,CC(=O)Nc1ccc2nc(NC(=O)c3cccnc3)sc2c1,7.4 µg/mL
10,CCOc1ccc2[nH]c3c(NCC(C)C)ncnc3c2c1,5.1 µg/mL
11,CCCc1cnc(N2CCN(C(=S)NC)CC2)nc1,38.7 µg/mL
12,O=C(c1ccco1)c1cn(CC(=O)N2CCCC2)c2ccccc12,> 48.4 µg/mL
13,CC(=O)N1CCN(c2ccccc2NC(=O)c2cccs2)CC1,> 49.4 µg/mL
14,CC(=O)N1CCN(c2ccnc3cc(Cl)ccc23)CC1,34.3 µg/mL
15,O=c1nc(Nc2ccccc2)oc2ccccc12,26.8 µg/mL
16,O=C(Nc1ccnc(-c2ccncc2)n1)c1ccccc1Cl,0.9 µg/mL
17,Cc1ccc(NC(=O)COC(=O)C2CC2)cc1Cl,35.6 µg/mL
18,Cc1cc(NC(=O)C(C)Oc2ccc(Cl)cc2Cl)no1 (stereo not given),9.1 µg/mL
19,CCOc1cc(N2CCOCC2)c(OCC)cc1NC(=O)c1cc(S(=O)(=O)N2CCOCC2)ccc1F,6.5 µg/mL
20,CC(=O)Nc1ccccc1NC(=O)c1ccc(C)c(C)c1,> 42.4 µg/mL
21,CCOc1nc2ccccc2cc1C=O,6.6 µg/mL
22,O=C(Nc1ccc(F)cc1F)N1CCN(CCc2ccccc2)CC1,42.7 µg/mL
23,Cc1ccc(CN2CCN(C3CCCC3)C(CCO)C2)s1 (stereo not given),43.7 µg/mL
24,NC(=O)COc1ccc(NS(=O)(=O)Cc2ccccc2)cc1,46.1 µg/mL

row,SMILES,solubility kinetic
1,O=C(CCc1ccccc1)NCC1(c2ccccc2)CCCC1,23.8 µg/mL
2,Cc1ccc2c(c1)C1(OCCCO1)C(=O)N2CC#N,37.6 µg/mL
3,CCOc1ncccc1C(=O)Nc1ccc2nc(C)sc2c1,4.2 µg/mL
4,Cc1ccccc1CC(=O)N1CCOCC1,> 32.9 µg/mL
5,Cc1ccc(NS(=O)(=O)c2ccc(C)c(NC(=S)NCCN3CCOCC3)c2)c(C)c1,> 69.4 µg/mL
6,CCc1cccc(C)c1N=Cc1c(O)c2ccccc2oc1=O,0.9 µg/mL
7,COc1ccc(Br)c(C(=O)OCC(=O)N2CCc3ccccc32)c1,2.3 µg/mL
8,COc1cccc2cc(C(=O)NC(C)c3ccccc3)c(=O)oc12 (stereo not given),< 0.7 µg/mL
9,Cc1cc(C(=O)Cn2c(CO)nc3ccccc32)c(C)n1C,> 44.6 µg/mL
10,Cc1cc(C)cc(NC(=O)COC(=O)COc2ccc(N(C)S(=O)(=O)c3cccs3)cc2)c1,9.1 µg/mL
11,Cc1ccc(NC(=O)C2CCCN2C(=O)OC(C)(C)C)cc1C (stereo not given),> 47.8 µg/mL
12,O=C(CSc1nnc(Nc2ccccc2F)s1)NC1CCS(=O)(=O)C1 (stereo not given),> 60.4 µg/mL
13,CCCN(CCC)C(=O)c1cc2c(=O)[nH]c3ccc(C)cc3c2s1,< 0.4 µg/mL
14,COc1ccc(CC(=O)Nc2cccc3ncccc23)cc1OC,> 48.4 µg/mL
15,CN1CCN(C(=O)c2cc3ccccc3[nH]2)CC1,> 36.5 µg/mL
16,COc1ccc(C(=O)N2CCN(c3ncccn3)CC2)cc1[N+](=O)[O-],50.5 µg/mL
17,Oc1ccccc1-c1nc(NCc2ccccc2)c2ccccc2n1,< 0.2 µg/mL
18,O=C(c1ccncc1)N1CCN(c2ccc3ccccc3n2)CC1,> 47.8 µg/mL
19,CSc1ccc(Cl)c(C(=O)OCC(=O)N(C)CCC#N)c1,> 49 µg/mL
20,CC(NC1CCN(Cc2ccccc2)CC1)c1ccc(F)cc1 (stereo not given),42.3 µg/mL
21,C=CCNC(=S)N1CCC(Cc2ccccc2)CC1,31.5 µg/mL
22,Cc1cc2cc(CNC(=O)Cc3ccc([N+](=O)[O-])cc3)ccc2[nH]1,6.9 µg/mL
23,O=C(Nc1cc(Cl)ccc1O)C1CC(c2ccccc2O)=NO1 (stereo not given),5.8 µg/mL
24,O=[N+]([O-])c1ccccc1S(=O)(=O)Nc1ncccn1,> 42 µg/mL

row,SMILES,solubility kinetic
1,COC(=O)c1ccc(CSc2nc3ccccc3c(=O)n2C)o1,4.5 µg/mL
2,Cc1ccccc1NC(=O)c1cccnc1,20.7 µg/mL
3,CC(C)(C)N(Cc1ccccc1)C(=O)c1ccncc1,> 40.3 µg/mL
4,Cc1nnc(NC(=O)CSc2nccn2-c2ccc(F)cc2)s1,> 52.4 µg/mL
5,Cc1ccc(C)c(CN2CCSCC2)c1,2.1 µg/mL
6,Fc1ccc(CN2CCC(Cc3ccccc3)CC2)cc1F,8 µg/mL
7,COC(=O)c1ccccc1CSc1nsc(C)c1C#N,< 0.3 µg/mL
8,Cc1nn(CC(=O)c2ccc(Cl)s2)c(C)c1[N+](=O)[O-],> 45 µg/mL
9,c1cnc(N2CCN(c3ccc4ccccc4n3)CC2)nc1,1.3 µg/mL
10,N/C(=N\OC(=O)CCCc1ccccc1)c1ccccc1Cl,11.4 µg/mL
11,Cc1ccc[n+](CC(=O)c2ccc(Cl)cc2)c1.[Cl-],> 42.3 µg/mL
12,COc1ccc(S(=O)(=O)N(C)CC(=O)N2CCCC2)cc1OC,> 51.4 µg/mL
13,COc1ccc(NC(=O)CCn2ccnc2)c(OC)c1,41.1 µg/mL
14,Cc1cccc(C)c1NC(=O)CN(C)CC(=O)N1CC(=O)Nc2ccccc21,> 57.1 µg/mL
15,COc1ccc(CCNC(=O)/C=C/C(=O)O)cc1,> 37.4 µg/mL
16,N#Cc1ccccc1NC(=O)COC(=O)c1c[nH]c2ccccc12,4.4 µg/mL
17,CCOC(=O)CN1C(=O)C(=O)N(Cc2c(F)cccc2Cl)C1=O,45.6 µg/mL
18,O=C1CC(Sc2cccs2)C(=O)N1c1ccccc1 (stereo not given),41.7 µg/mL
19,O=C(/C=C/c1ccco1)OCC(=O)c1cccc([N+](=O)[O-])c1,3.2 µg/mL
20,CC1CC(C)CN(C(=O)Cn2cc(C=O)c3ccccc32)C1 (stereo not given),> 44.8 µg/mL
21,CC(NC(=O)c1ccc(Cl)cc1)C1CC2CCC1C2 (stereo not given),1.1 µg/mL
22,CSc1ncccc1C(=O)NC(C)CCc1ccccc1 (stereo not given),11.9 µg/mL
23,COc1ccc(C(=O)OCC(=O)NC2CCCC2)c(OC)c1OC,> 50.6 µg/mL
24,COc1ccc(N2C(=O)CSC2c2ccccc2)cc1 (stereo not given),42.3 µg/mL
